From a melting point compilation (Tetko et al.)

| melting point [°C] | SMILES |
| --- | --- |
| 233 to 235 | NNc1cc(C(F)(F)F)nc(-c2ccncc2)n1 |
| 53 to 55 | O=[N+]([O-])c1cc(S(=O)(=O)Cl)ccc1Br |
| 123 to 127 | O=C(O)CCNS(=O)(=O)c1ccc(F)cc1 |
| 45 to 47 | O=S(=O)(Cl)c1cnccc1Cl |
| 264 to 266 | O=CNc1ccc(C(=O)O)cc1 |
| 123 to 125 | CC(C)(C(=O)O)c1ccc(Br)cc1 |
| 110 to 112 | CC1CNc2cccnc2N1 (centres undefined) |
| 198 to 200 | O=[N+]([O-])c1cnc(O)c(Cl)c1 |
| 113 to 115 | NCc1cccc(NC(=O)Cn2cccn2)c1 |
| 215 to 217 | O=C(O)c1ccc(Oc2ccc(Cl)cn2)cc1 |
| 173 to 175 | O=c1cc[nH]c2c(Br)cccc12 |
| 141 to 143 | Cc1noc(-c2ccc(N)c(Cl)c2)n1 |
| 99 to 101 | NC(=O)C1(c2cccc(Cl)c2)CC1 |
| 163 to 167 | O=C1CCS(=O)(=O)c2ccc(F)cc21 |
| 108 to 110 | O=C(O)COc1cccc(Br)c1 |
| 92 to 94 | CCOC(=O)c1cccnc1S(N)(=O)=O |
| 94 to 96 | O=C(O)c1cccc(OCC(F)F)n1 |
| 256 to 258 | Nc1cnc(Br)cc1C(=O)O |
| 213 to 215 | O=C(Nc1ccccc1Cl)c1c[nH]c2ccccc12 |
| 196 to 198 | Nc1ccc(Oc2ccc(S(N)(=O)=O)cc2)cc1 |

| melting point [°C] | SMILES |
| --- | --- |
| 81 to 83 | COc1cccc(NCCC#N)c1 |
| 244 to 246 | O=C(O)c1ccc(S(=O)(=O)C(F)(F)F)cc1 |
| 195 to 197 | O=C(O)c1ccc(Cl)c(S(=O)(=O)N2CCc3ccccc32)c1 |
| 176 to 178 | CN1CCN(S(=O)(=O)c2ccc3c(c2)CCN3)CC1 |
| 147 to 149 | NS(=O)(=O)c1cccc2c1CCCN2 |
| 316 to 318 | NC(=O)c1ccc(=O)[nH]c1 |
| 149 to 151 | O=C(O)c1nc(Cl)ccc1F |
| 167 to 169 | CC(C)(Nc1ccc([N+](=O)[O-])cc1)C(=O)O |
| 123 to 125 | OCc1cnc2ccccn12 |
| 179 to 181 | O=C(O)c1ccc(Sc2ccccn2)cc1 |
| 79 to 81 | COc1cc(Br)c(F)cc1S(=O)(=O)Cl |
| 114 to 116 | NC(=O)COc1cccc(CCl)c1 |
| 328 to 330 | O=[N+]([O-])c1ccc(Cl)c(S(=O)(=O)Nc2nc3ccc(Cl)cc3s2)c1 |
| 317 to 319 | O=S(=O)(O)c1ccnc2ccccc12 |
| 139 to 141 | CN(C)S(=O)(=O)c1ccc2nc(Cl)c(Cl)nc2c1 |
| 188 to 190 | CN1C(=O)CC(C(N)=O)C1c1cccc(Cl)c1 (centres undefined) |
| 155 to 157 | Cc1nc(Br)ccc1C(=O)O |
| 157 to 159 | O=C(CCl)NC(=O)c1ccccc1 |
| 209 to 211 | O=C(CBr)c1c[nH]c2ncccc12 |
| 376 to 378 | Sc1nc2cc(Cl)cc(Cl)c2[nH]1 |

| melting point [°C] | SMILES |
| --- | --- |
| 159 to 161 | Nc1ccc(C(=O)NCc2ccccn2)c(Cl)c1 |
| 189 to 191 | O=C(O)C(=Cc1cccnc1)NC(=O)c1ccccc1 |
| 83 to 85 | N#Cc1ccc(Cl)nn1 |
| 70 to 72 | O=[N+]([O-])c1ccc(S(=O)(=O)Cl)c(Br)c1 |
| 274 to 276 | O=C1Nc2c(F)ccc(Br)c2C1=O |
| 274 to 276 | O=c1[nH]nc(-c2ccc(Cl)c(Cl)c2)c2ccccc12 |
| 64 to 66 | COc1ncccc1O |
| 131 to 133 | CCOC(=O)COc1ccc(S(C)(=O)=O)cc1[N+](=O)[O-] |
| 66 to 68 | O=Cc1cnn(-c2ccccc2)n1 |
| 47 to 49 | CC(C)(C)c1ccc(S(=O)(=O)Cl)s1 |
| 115 to 117 | NC1CCCS(=O)(=O)c2ccccc21 (centres undefined) |
| 209 to 211 | O=C(O)c1ccc(NS(=O)(=O)c2ccccc2)cc1 |
| 68 to 70 | Clc1cc[nH]n1 |
| 76 to 78 | O=Cc1csc(COc2ccccc2)n1 |
| 189 to 191 | Nc1cccc(-c2cn[nH]c2)c1 |
| 197 to 199 | O=C1Nc2ccc(S(=O)(=O)Cl)c3cccc1c23 |
| 191 to 193 | O=C(O)c1ccn(-c2ccc(Cl)c(Cl)c2)n1 |
| 112 to 114 | Nc1ncn(Cc2cccnc2)n1 |

The next lines start with the compound.

| SMILES | melting point [°C] |
| --- | --- |
| O=C(O)c1cccnc1SCc1ccc(Br)cc1 | 236 to 238 |
| OCCn1nccc1C1CCNCC1 | 126 to 128 |
| Cc1cccc(C)c1Nc1nnc(S)s1 | 266 to 268 |
| Cc1ccc(I)c(O)c1 | 62 to 64 |
| N#Cc1ccccc1-c1ccc(CBr)cc1 | 127 to 129 |
| Nc1cc(N2CCCS2(=O)=O)ccc1F | 102 to 104 |
| O=C1CCCCC1N1CCS(=O)(=O)CC1 (centres undefined) | 105 to 107 |
| COc1ccc(-n2cnnc2S)cn1 | 199 to 201 |
| O=C(O)CCc1ccc(Br)cc1F | 97 to 99 |
| O=[N+]([O-])c1ccn(C2CCCCC2O)n1 (centres undefined) | 94 to 96 |
| CCC(CC)(CN)NC(=O)OC(C)(C)C | 49 to 51 |
| CC1CC(C)CN(C(=O)c2ccccc2N)C1 (centres undefined) | 97 to 99 |
| CCc1nc2ccccc2n1C1CCNCC1 | 99 to 101 |
| O=Cc1csc(-c2ccc(F)cc2)n1 | 99 to 101 |
| OCC#Cc1ccc(Oc2ccccc2)cc1 | 42 to 44 |
| COC(=O)c1c(N)sc(C)c1C | 124 to 126 |
| CC(C)(C)OC(=O)NC(CCC(=O)O)c1ccccc1 (centres undefined) | 151 to 153 |
| CC(C)C(NC1=NS(=O)(=O)c2ccccc21)C(=O)O (centres undefined) | 234 to 236 |
| O=C1CC2(CCSC2)C(=O)O1 (centres undefined) | 83 to 85 |
| COc1ccc(-n2c(C)cc(C(=O)O)c2C)cc1 | 232 to 234 |
| CCOC(=O)C1CN(Cc2ccccc2)CCC1=O (centres undefined) | 161 to 163 |
| NC(=O)c1ccccc1N1CCC(N)CC1 | 143 to 145 |

| SMILES | melting point [°C] |
| --- | --- |
| CC(C)c1cnc(S)n1C1CC1 | 175 to 177 |
| O=c1[nH]c2ccccc2c(=O)n1CCO | 257 to 259 |
| NC(=NO)c1cccc(Br)c1 | 132 to 134 |
| CSCC[C@H](N)C(=O)NO | 148 to 150 |
| CC(CO)Nc1nc2ccccc2[nH]1 (centres undefined) | 174 to 176 |
| CC(=O)c1cnn(C)c1C | 47 to 49 |
| O=C(O)c1oc2ccccc2c1Cn1cccn1 | 226 to 228 |
| ClCc1cnc(Cl)s1 | 31 to 33 |
| O=C(Nc1ccccc1)OCC(F)(F)F | 62 to 65 |
| NNC(=O)NCCc1cccs1 | 90 to 92 |
| c1ccc(-c2ccc3[nH]ccc3c2)cc1 | 74 to 76 |
| Cc1ccc2oc(C(=O)O)c(C)c2c1 | 180 to 182 |
| COC(=O)C1CCCN1C(=O)c1ccc([N+](=O)[O-])s1 (centres undefined) | 119 to 121 |
| CC(C)c1nn(-c2ccccc2)cc1C(=O)O | 169 to 171 |
| COC(=O)C(=O)CC(=O)c1ccc(OC)cc1F | 101 to 103 |
| COc1ccc(-c2ccc(C=O)o2)c([N+](=O)[O-])c1 | 107 to 109 |
| Cc1cc(CO)nc(N2CCCCC2)n1 | 51 to 53 |
| CCCc1nnc(N)s1 | 198 to 202 |
| NC(=O)Cc1ccc(OCC(=O)O)cc1 | 171 to 173 |
| COc1ccc(N2CCCNC(=O)C2)cc1 | 172 to 174 |
| CC(=O)N1CCCC(C(=O)O)C1 (centres undefined) | 129 to 131 |
| O=C(O)c1oc2ccccc2c1CSc1cccs1 | 166 to 168 |

| SMILES | melting point [°C] |
| --- | --- |
| O=C(O)CNC(=O)Nc1ccccc1 | 196 to 198 |
| COc1ccc(NC(=O)/C=N/O)cc1 | 180 to 182 |
| Cc1[nH]nc2ncc(C(=O)O)cc12 | 337 to 339 |
| Oc1ccc(-c2nc(-c3ccccc3)cs2)cc1 | 148 to 150 |
| Nn1c(S)nnc1-c1ccccc1Br | 188 to 190 |
| Cn1c(=O)cc(C(=O)O)c2ccccc21 | 250 to 252 |
| Cc1nn(C2CCOC2)cc1C(=O)O (centres undefined) | 163 to 165 |
| N#CC1(N2CCNCC2)CCCCC1 | 82 to 84 |
| CC(C)c1cccc(N2CC(C(=O)O)CC2=O)c1 (centres undefined) | 126 to 128 |
| C#CCN1C(=O)COc2ccc(Br)cc21 | 111 to 113 |
| CCN(CCC(N)=S)C(C)=O | 56 to 58 |
| CNC(=O)CC1CCNCC1 | 105 to 107 |
| O=C(O)c1cn(-c2ccccc2)nc1-c1cccs1 | 197 to 199 |
| CCC(Nc1ccccc1)C(N)=O (centres undefined) | 122 to 124 |
| CC(C)(C)c1cnc(S)o1 | 131 to 133 |
| C=CCN1C(=O)c2ccc(C(=O)O)cc2C1=O | 154 to 156 |
| CCOC(=O)c1sc2nc(C)nn2c1C | 87 to 89 |
| COC(=O)c1cc(C(C)(C)C)n[nH]1 | 172 to 174 |
| Cc1cc(Br)cc2c1NC(=O)C2=O | 298 to 300 |
| O=C(O)c1ccc(Oc2ccc(Br)cc2)nc1 | 175 to 177 |
| CCN(CC)S(=O)(=O)c1ccc(N2CCC(C(=O)O)CC2)c([N+](=O)[O-])c1 | 204 to 206 |
| CN1CCN(c2ccc(C(=O)O)cc2[N+](=O)[O-])CC1 | 160 to 162 |

| SMILES | melting point [°C] |
| --- | --- |
| O=C(Cc1ccccc1)C[N+](=O)[O-] | 48 to 50 |
| O=C(O)C#Cc1ccc(F)cc1F | 170 to 172 |
| O=C(O)COC1CCOCC1 | 65 to 67 |
| Cc1ccc(-c2nc(CCl)co2)cc1 | 97 to 99 |
| Cc1c(NC(=O)C(C)Sc2nnc(N)s2)c(=O)n(-c2ccccc2)n1C (centres undefined) | 143 to 147 |
| O=CC1=C(Sc2ccccc2)CCCC1 | 42 to 44 |
| COc1ccc(-c2ccc(CN)s2)cc1 | 114 to 116 |
| CC(=O)Nc1ccc(CO)cc1 | 117 to 119 |
| Cc1cc(C)cc(OCCC(=O)O)c1 | 88 to 90 |
| O=C(O)Cc1ccn(-c2ccccc2)n1 | 99 to 101 |
| O=C(O)c1cccc(C2CCCOC2)c1 (centres undefined) | 82 to 84 |
| CC(C)C(O)Cc1ccccc1Br (centres undefined) | 73 to 75 |
| O=C1CC(c2ccccc2)CN1 (centres undefined) | 70 to 72 |
| COc1cc(N)c(O)cc1[N+](=O)[O-] | 149 to 151 |
| COc1cc2c(c(OC)c1OC)CCNC(=O)C2 | 176 to 178 |
| O=C(O)c1ccccc1-n1cnnn1 | 190 to 194 |
| Nc1ccc(OCc2cccc(C(F)(F)F)c2)cc1 | 67 to 69 |
| O=C(Nc1ccccc1C(=O)O)c1ccccc1Br | 201 to 203 |
| Cc1ccc(C(=O)NC(C(=O)O)C(C)C)cc1 (centres undefined) | 155 to 157 |
| CN(CC(=O)O)S(C)(=O)=O | 54 to 56 |
